The values that follow come from ChEMBL document CHEMBL1201862, “PubChem BioAssay data set” (2004).

Some test systems named below: ACHN; BT-549; CCRF-CEM; DU-145; HCT-15; HOP-62; IGROV-1; MDA-MB-231; MDA-MB-435; Malme-3M; NCI-H23; NCI-H460; NCI/ADR-RES; SF-268; SK-MEL-28; SN12C; SNB-75; T47D; SK-MEL-5; HOP-92.
Holding throughout (test): NCI tumour cell line growth inhibition, 48 h

Values joined by “and” are separate entries in the source; they are usually repeats but may differ in a detail not shown here. Identical values can stand only once.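 Test compounds were applied to cells in 96-well plates for 48 hours at 5 doses. Here, GI50 denotes the concentration required for 50% inhibition of growth.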 Active and inactive are the calls of the source. Rule as the data show it: active = GI50 up to about 1.1 µM and inactive = higher.

For the compound `COC(=O)c1ccccc1/C=C1\Cc2ccc3c(c2C1=O)CCCC3`, the GI50 with ACHN is > 100 µM (inactive); with BT-549, > 100 µM (inactive); in the experiment with CCRF-CEM, > 100 µM (inactive); with DU-145, > 100 µM (inactive); in the experiment with HCT-15, over 100 µM; with HOP-62, > 100 µM (inactive). The GI50 with IGROV-1, in the experiment on MDA-MB-231, in the experiment on MDA-MB-435, with Malme-3M, in the experiment with NCI-H23 and in the experiment with NCI-H460 was > 100 µM (inactive) each time. Also, the GI50 in the experiment on NCI/ADR-RES, with SF-268, with SK-MEL-28, in the experiment with SN12C, in the experiment on SNB-75 and in the experiment on T47D was > 100 µM (inactive) in each case.

For the compound `COc1ccc(/N=N/C(=N/NC(=O)c2cc(Cl)ccc2C(=O)c2ccccc2)c2ccc(N(CCC#N)CCC#N)cc2C)cc1`, the GI50 in the experiment with ACHN was 25.6 µM (inactive); in the experiment with BT-549 it was 29.4 µM (inactive); in the experiment with CCRF-CEM, 4.54 µM (inactive); with DU-145 it was 19.5 µM (inactive); in the experiment with HCT-15 it was 13.9 µM; in the experiment on HOP-62, 20.1 µM (inactive). The GI50 was 6.49 µM (inactive) in the experiment with IGROV-1; 15.1 µM (inactive) with MDA-MB-231; 27.6 µM (inactive) in the experiment with MDA-MB-435; 26.2 µM (inactive) with Malme-3M; 18 µM (inactive) in the experiment with NCI-H23; 11.5 µM (inactive) in the experiment on NCI-H460. The GI50 in the experiment on NCI/ADR-RES is 16.7 µM (inactive); with SF-268, 12.1 µM (inactive); with SK-MEL-28, 25.8 µM (inactive); in the experiment with SK-MEL-5, 15.5 µM (inactive); in the experiment with SN12C it was 14.6 µM (inactive); with SNB-75 it was 27.8 µM (inactive). The GI50 in the experiment on T47D is 15 µM (inactive).

For the compound `COc1ccc(-n2c(C)nc3ccc(NC4OCC(O)C(O)C4O)cc3c2=O)cc1` (configuration not stated), the GI50 in the experiment on ACHN is 61.4 µM (inactive) and 36.6 µM (inactive); with BT-549, 74.5 µM (inactive); in the experiment with DU-145, > 100 µM (inactive); in the experiment on HCT-15 it was 26.6 µM and 31.6 µM; with HOP-62, > 100 µM (inactive); with IGROV-1, > 100 µM (inactive) and 55.1 µM (inactive). Further, the GI50 in the experiment on MDA-MB-231 was > 100 µM (inactive); with MDA-MB-435, > 100 µM (inactive) and 82.8 µM (inactive); in the experiment on Malme-3M it was 57.7 µM (inactive) and 99.3 µM (inactive); in the experiment on NCI-H23, 56.6 µM (inactive) and 38.3 µM (inactive); in the experiment with NCI-H460, 72.9 µM (inactive) and 40.5 µM (inactive); with NCI/ADR-RES, 53.7 µM (inactive) and 83.6 µM (inactive). The GI50 was > 100 µM (inactive) with SF-268; 21.8 µM (inactive) and 32.1 µM (inactive) with SK-MEL-28; > 100 µM (inactive) in the experiment on SK-MEL-5; 38.1 µM (inactive) and 27.2 µM (inactive) in the experiment with SN12C; > 100 µM (inactive) in the experiment with SNB-75; > 100 µM (inactive) in the experiment with T47D.

In the case of `COc1ccc(/C=N/n2c(C)n[nH]c2=O)c(OC)c1`, the GI50 in the experiment with ACHN is > 100 µM (inactive); with BT-549 it was > 100 µM (inactive); with CCRF-CEM, > 100 µM (inactive); in the experiment with DU-145, 71.6 µM (inactive); in the experiment with HCT-15 it was over 100 µM; with HOP-62 it was > 100 µM (inactive). For the same compound, the GI50 is > 100 µM (inactive) in the experiment with MDA-MB-231; 90.4 µM (inactive) in the experiment on MDA-MB-435; > 100 µM (inactive) in the experiment with Malme-3M; > 100 µM (inactive) in the experiment with NCI-H23; > 100 µM (inactive) in the experiment with NCI-H460; > 100 µM (inactive) in the experiment on NCI/ADR-RES. Besides, the GI50 in the experiment with SF-268, with SK-MEL-28, in the experiment on SN12C, in the experiment with SNB-75 and with T47D was > 100 µM (inactive) each time.

As to `C/C(CC/C(C)=N/O)=N\O`, the GI50 is > 100 µM (inactive) in the experiment on ACHN; > 100 µM (inactive) in the experiment with BT-549; > 100 µM (inactive) with DU-145; over 100 µM in the experiment on HCT-15; > 100 µM (inactive) in the experiment with HOP-62; > 100 µM (inactive) in the experiment on IGROV-1. Moreover, the GI50 in the experiment with MDA-MB-231, in the experiment on MDA-MB-435, in the experiment with Malme-3M, in the experiment on NCI-H23, in the experiment with NCI-H460 and in the experiment on NCI/ADR-RES was > 100 µM (inactive) each time. For the same compound, the GI50 in the experiment on SF-268, in the experiment on SK-MEL-28, with SK-MEL-5, in the experiment with SN12C, in the experiment with SNB-75 and in the experiment on T47D was > 100 µM (inactive) each time.

For `COc1cc2c(cc1O)c(O)cc1c3cc(OC)c(OC)cc3c[n+](C)c21`, the GI50 in the experiment on ACHN was 56.6 µM (inactive); in the experiment with BT-549, 23 µM (inactive); in the experiment with CCRF-CEM it was 1.37 µM (inactive); in the experiment on DU-145 it was 7.52 µM (inactive); in the experiment on HCT-15, over 100 µM; in the experiment on HOP-62 it was 34.1 µM (inactive). Also, the GI50 in the experiment on MDA-MB-231 was 35.3 µM (inactive); in the experiment on MDA-MB-435 it was 16.4 µM (inactive); with Malme-3M, 32.9 µM (inactive); in the experiment with NCI-H23, 4.69 µM (inactive); in the experiment with NCI-H460, 15.9 µM (inactive); with NCI/ADR-RES it was > 85.9 µM (inactive). For the same compound, the GI50 is < 0.01 µM (active) with SF-268; > 100 µM (inactive) in the experiment on SK-MEL-28; 19 µM (inactive) with SK-MEL-5; 1.24 µM (inactive) with SN12C; 35.2 µM (inactive) with SNB-75; 1.45 µM (inactive) in the experiment with T47D.

Take `Cc1cc(OP2(=O)NCc3ccncc3O2)ccc1Cl` (configuration not stated): the GI50 is > 100 µM (inactive) in the experiment with ACHN; > 100 µM (inactive) with BT-549; 44.5 µM (inactive) in the experiment on CCRF-CEM; > 100 µM (inactive) in the experiment on DU-145; over 100 µM with HCT-15; > 100 µM (inactive) with HOP-62. In addition, the GI50 in the experiment on HOP-92, in the experiment on IGROV-1, in the experiment on MDA-MB-231, in the experiment on MDA-MB-435, in the experiment with NCI-H23 and in the experiment on NCI-H460 was > 100 µM (inactive) throughout. For the same compound, the GI50 in the experiment with NCI/ADR-RES, with SK-MEL-28, in the experiment on SK-MEL-5, in the experiment with SN12C, in the experiment with SNB-75 and in the experiment on T47D was > 100 µM (inactive) each time.

`O=c1cc(N2CCOCC2)[nH]c(=O)n1-c1cccc(Cl)c1`: the GI50 is > 100 µM (inactive) in the experiment on ACHN; > 100 µM (inactive) with BT-549; > 100 µM (inactive) with CCRF-CEM; > 100 µM (inactive) with DU-145; over 100 µM in the experiment on HCT-15; > 100 µM (inactive) in the experiment with HOP-62. The GI50 with HOP-92, in the experiment with IGROV-1, in the experiment with MDA-MB-231, with MDA-MB-435, with Malme-3M and in the experiment with NCI-H23 was > 100 µM (inactive) in each case. Also, the GI50 in the experiment on NCI-H460, with NCI/ADR-RES, with SF-268, in the experiment on SK-MEL-28, in the experiment with SN12C and in the experiment with SNB-75 was > 100 µM (inactive) in each case. Further, the GI50 with T47D was > 100 µM (inactive).

For the compound `Cc1ccc2nc3c(=O)[nH]c(=O)nc-3n(C)c2c1C`, the GI50 in the experiment on ACHN was > 100 µM (inactive); in the experiment on BT-549 it was > 100 µM (inactive); in the experiment on CCRF-CEM, > 100 µM (inactive); in the experiment on DU-145, > 100 µM (inactive); with HCT-15, over 100 µM; in the experiment with HOP-62, > 100 µM (inactive). The GI50 with IGROV-1, in the experiment with MDA-MB-231, in the experiment on MDA-MB-435, in the experiment with Malme-3M, in the experiment on NCI-H23 and in the experiment with NCI-H460 was > 100 µM (inactive) throughout. In addition, the GI50 in the experiment with NCI/ADR-RES, with SF-268, with SK-MEL-28, in the experiment with SK-MEL-5, in the experiment on SN12C and with SNB-75 was > 100 µM (inactive) each time. Moreover, the GI50 in the experiment on T47D is > 100 µM (inactive).

`CN(C)CCO/N=C1/C=C2CC[C@H]3[C@@H]4CC[C@H](O)[C@@]4(C)CC[C@@H]3[C@@]2(C)CC1`: the GI50 in the experiment on ACHN was 15.4 µM (inactive); with BT-549, 2.61 µM (inactive); with CCRF-CEM it was 6.89 µM (inactive); in the experiment on DU-145, 16.7 µM (inactive); in the experiment with HCT-15, 13.9 µM; with HOP-62, 12.1 µM (inactive). Besides, the GI50 in the experiment with HOP-92 was 7.85 µM (inactive); with IGROV-1, 6.95 µM (inactive); in the experiment on MDA-MB-231 it was 12.9 µM (inactive); in the experiment with MDA-MB-435 it was 3.49 µM (inactive); in the experiment on NCI-H23, 11.4 µM (inactive); in the experiment with NCI-H460 it was 7.11 µM (inactive). The GI50 in the experiment with NCI/ADR-RES is 3.18 µM (inactive); with SF-268, 7.48 µM (inactive); in the experiment with SK-MEL-28 it was 13.8 µM (inactive); in the experiment with SK-MEL-5 it was 8.71 µM (inactive); with SN12C, 11.7 µM (inactive); with SNB-75 it was 3.48 µM (inactive). Further, the GI50 with T47D was 23.9 µM (inactive).

On to `COc1ccc(OC)c2c(Nc3ccc(S(=O)(=O)O)c4cc(S(=O)(=O)O)cc(S(=O)(=O)O)c34)cc(C)nc12`, for which the GI50 was > 100 µM (inactive) in the experiment on ACHN; > 100 µM (inactive) in the experiment on BT-549; > 100 µM (inactive) in the experiment with CCRF-CEM; > 100 µM (inactive) in the experiment with DU-145; over 100 µM with HCT-15; > 100 µM (inactive) in the experiment on HOP-62. Also, the GI50 in the experiment on IGROV-1, in the experiment on MDA-MB-231, in the experiment on MDA-MB-435, in the experiment with Malme-3M, in the experiment on NCI-H23 and with NCI-H460 was > 100 µM (inactive) in each case. Besides, the GI50 in the experiment on NCI/ADR-RES, in the experiment on SF-268, in the experiment on SK-MEL-28, with SK-MEL-5, in the experiment with SN12C and in the experiment with SNB-75 was > 100 µM (inactive) each time. The GI50 in the experiment on T47D is > 100 µM (inactive).
